The text below walks through data of patent US20070270392A1, “Use of a Cyclopentenone Prostaglandin for Delaying the Onset and/or Preventing the Continuation of Labour” (Imperial College Innovations Limited, priority 2003, published 2007).

Holding throughout (assay type): cell-based, human
Data set [1] concerns NF-κB. Briefly: EMSA of NF-κB DNA binding in nuclear extracts of treated myometrial cells. The conditions noted are these: for IL-1β-induced NF-κB DNA binding: myometrial cells, treated 2 h, IL-1β stimulation 15 min. The protocol:
Electro-mobility shift assay (EMSA) analysis of NF-κB DNA binding in nuclear protein extracts from (A) myometrial cells, (B) L+amnion cells, and (C) L− amnion cells treated with 15dPGJ2 or vehicle for 2 h+/−IL-1b stimulation (15 min). Consensus kB probe used to assess NF-κB DNA binding, and consensus Oct-1 probe used as control.
Consensus κB probe used to assess NF-κB DNA binding, consensus Oct-1 probe used as control. For supershift analysis, extracts were preincubated with antibodies against p50 or p65.
EMSA analysis of nuclear protein extracts from myometrial cells treated with (A) WY-14643 or vehicle, and (B) high doses of troglitazone, WY-14643 or vehicle for 2 h followed by IL-1b stimulation (15 min). Consensus κB probe used to assess NFκB DNA binding, consensus Oct-1 and Sp-1 probes used as controls.
EMSA analysis of nuclear protein extracts from (A) myometrial cells, and (B) amnion cells treated with PGA1 or vehicle for 2 h followed by IL-1b stimulation (15 min). Consensus κB probe used to assess NFκB DNA binding, consensus Oct-1 probe used as control. For supershift analysis, extracts were preincubated with antibodies against p50 or p65.
(§1) Analysis of nuclear protein extracts from myometrial cells treated with PGE2 or vehicle for 2 h+/−TNFα or IL-1b stimulation (15 min). (A) EMSA using consensus κB probe. (B) Western immunoblot probing for nuclear p65.
EMSA analysis of nuclear protein extracts from (A) L− amnion cells and (B) myometrial cells treated with vehicle, PGE2 or IL-1β. Consensus κB probe used.
(§2) Myometrial tissue was collected at term from the upper margin of uterine incision at the time of lower segment caesarean section either prior to the onset of labour (L−) or […] (L+). L+ samples were collected by Dr Mark Johnson and Dr S Soorrana at Chelsea & Westminster Hospital. Myometrial tissue was dissected, rinsed in PBS, and digested in serum-free DMEM containing 15 mg/ml collagenase 1A (Sigma), 15 mg/ml collagenase X, and 50 mg/ml bovine serum albumin for 45 min at 37° C. The cell suspension was filtered through a cell strainer, centrifuged at 400 g for 5 min, and the pellet re-suspended and plated out in DMEM, 10% FCS (Helena BioScience), 1% L-glutamine, 1% penicillin-streptomycin. Cells were used between passage numbers 1-4.
(§3) Nuclear and cytosolic protein extracts were obtained from cultured amnion cells as described by Schreiber et al (1989). For nuclear/cytosolic fractionation, confluent cell monolayers were scraped and lysed using a buffer containing 10 mM HEPES, 10 mM KCl, 0.1 mM EDTA, 0.1 mM EGTA, 2 mM DTT, 1% (v/v) NP-40 and complete protease inhibitor tablets (CPIs, Roche), diluted to manufacturer's instructions. Cell lysates were incubated on ice for 10 min and NP-40 added to a final concentration of 1% (v/v). Lysates were vortexed for 10 secs and centrifuged for 30 secs at 4° C., 12000 g. The supernatants were retained as the cytosolic protein extracts. The pellets were resuspended in buffer containing 10 mM HEPES, 10 mM KCl, 0.1 mM EDTA, 0.1 mM EGTA, 2 mM DTT, 400 mM NaCl, 1% NP-40 (v/v) and CPIs. Samples were shaken vigorously for 15 min in an ice bath. The nuclear protein extracts were obtained in the supernatant following a 5 min centrifugation at 4° C., 12000 g.
Sense and antisense strands (175 nmole/ml each) were incubated in annealing buffer (10 mM Tris-HCl pH7.5, 100 mM NaCl, 1 mM EDTA) for 10 min at 65° C., and allowed to cool at room temperature for 2 h. 3.5 pmole double-stranded oligonucleotides were end-labelled with 0.37 MBq ^32P(γATP) by incubating for 30 min at 37° C. with T4 polynucleotide kinase. Labelled oligonucleotides were recovered by centrifugation at […] for 2 min through MicroSpin G-25 or G-50 sephadex columns (Amersham Biosciences). […]
On the technique in general: Mobility shift assays separate free from complexed probe on a gel.

Data set [2] deals with NF-κB. Briefly: Western immunoblot of NF-κB activation (p65, p50, IκB) in myometrial cells. Set-up: Accumulation of phosphorylated IκBα: dose or concentration left out as unconfirmed. The protocol: (§4) Western immunoblots of nuclear or cytosolic protein extracts from (A) myometrial cells, (B) L− amnion cells, and (C) L+amnion cells treated with 15dPGJ2 or vehicle for 2 h+/−IL-1, stimulation (15 min). Blots probed with antibodies against p65, p50 or IκBα.
Western immunoblot of nuclear or cytosolic protein extracts from myometrial cells treated with PGA1 or vehicle for 2 h followed by IL-1β stimulation (15 min). Blots probed with antibodies against p65 or IκBa.
as §1
Western immunoblots of cytosolic extracts from myometrial cells (A) treated with 15dPGJ2 for 2 h+/−IL1b for 15 min; probed for IKK, and (B) treated with […] 15dPGJ2, […] MG132 or vehicle for 2 h, +/−IL-1β for 15 min; probed for IκBα.
as §2, §3
(§5) Protein samples (20-70 μg) were mixed with Laemmli sample buffer (1:1) containing β-mercaptoethanol (5%), and boiled for 5 min. Proteins were then separated by SDS-PAGE (12-14% gels) and transferred onto PVDF membrane (Amersham Pharmacia Biotech). The membranes were blocked overnight in 5% non-fat milk prepared in PBS-T buffer, at 4° C. The blots were incubated with the primary antibody in 1% non-fat milk in PBS-T buffer for 1 h, and washed three times (10 min each) in PBS-T with vigorous shaking. The blots were then incubated with HRP-conjugated secondary antibody (diluted 1:2000 in 1% non-fat milk in PBS-T buffer) for 1 h and washed three times (10 min each) in PBS-T. Signal detection was achieved using enhanced chemi-luminescence (ECL plus system, Amersham Pharmacia Biotech) according to manufacturer's instructions.
30-50 μg protein extracts were subjected to SDS-PAGE and Western immuno-blotting. Secondary antibodies were IgG-HRP and ECL Plus detection kit (Amersham Pharmacia Biotech, Amersham Place, Little Chalfont, Bucks, HP7 9NA) was used for visualisation.
(In general: In western blotting, separated proteins are transferred to a membrane and probed.)

For data set [3], the system named is NF-κB. Briefly: Western immunoblot of NF-κB activation (p65, p50, IκB) in amnion cells. To be noted: L−. The protocol:
as §4
Placentae were obtained from patients at term either at elective Caesarean section prior to labour (L−) or following spontaneous labour onset and vaginal delivery (L+). Amnion cells were prepared as described in Bennett et al., (1989). Briefly, the amnion was separated from the placenta, washed 3× in PBS, cut into strips, and incubated in 0.51 mM EDTA in PBS for 15 min. The strips were washed in PBS 2× and digested with 2.5 mg/ml dispase in serum-free DMEM for 35 min at 37° C. The amnion was then shaken vigorously in DMEM, 10% FCS to dissociate the cells, the remaining strips discarded, and the cell suspension pelleted at 175 g for 10 min and cultured in DMEM, 10% FCS (Sigma), 1% L-glutamine, 1% penicillin-streptomycin.
as §3
as §5, with “instructions. […]” for “instructions.”

`CCCCCC=CC=C1C(=O)C=C[C@@H]1CC=CCCCC(=O)O` [15d-PGJ2, 15-deoxy-Δ^12,14prostaglandin J2]: in the data set on NF-κB [1] (control for NF-κB-specific effect), the “Protein binding to a consensus Oct-1 or Sp-1 probe (control)” value is “unaffected”. The “IL-1β-induced NF-κB DNA binding” value with NF-κB [1] is on record as “inhibited”. Besides, in the data set with NF-κB [2], the “IL-1β-induced IκBα and IκBβ degradation” value is “inhibition”; the “IL-1β-induced p50 phosphorylation” value is listed as “inhibited”; the “IL-1β-induced p65 nuclear translocation” value is on record as “inhibited”. In addition, the “Accumulation of phosphorylated IκBα” value in the data set on NF-κB [2] (2 h, IL-1β 15 min) is on record as “not detected”. The IκBα phosphorylation entry in the data set on NF-κB [2] (cytosolic extracts) was “inhibits”. Besides, in the data set with NF-κB [3], the “IL-1β-induced IκBα and IκBβ degradation” value is “inhibition”; the “IL-1β-induced p50 phosphorylation” value is on record as “inhibited”; the “IL-1β-induced p65 nuclear translocation” value is listed as “inhibited”.
`CCCCC[C@H](O)/C=C/[C@H]1C=CC(=O)[C@@H]1CCCCCCC(=O)O` [PGA1, prostaglandin A1]: in the data set with NF-κB [1], the “IL-1β-induced NF-κB DNA binding” value is “able to inhibit”. Moreover, in the data set with NF-κB [2], the “IL-1β-induced IκBα degradation” value is on record as “inhibited” and the “IL-1β-induced p65 nuclear translocation” value is “inhibited”.
